Among the test systems are UACC-62; NCI-H460; OVCAR-4; KM12; EKVX; IGROV-1; M19-MEL; SF-539; K562; COLO 205; SF-295; DLD-1; RPMI-8226; HCT-15; NCI-H226; A549; RXF 393; PC-3; NCI/ADR-RES; Hs-578T.
What all share (test): NCI tumour cell line growth inhibition, 48 h

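Assay format: 96-well plates, 48-hour exposure. GI50 marks 50% less growth.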 Active and inactive are the calls of the source. Rule as the data show it: active = GI50 up to about 1.1 µM and inactive = higher. Some results are limits rather than exact numbers.

On to `CCc1c(-c2coc(CC/C(C)=C/c3ccccc3)n2)oc(OC)c(C)c1=O`, for which the GI50 is 17.6 µM (inactive) in the assay with UACC-62; 18.7 µM (inactive) in the assay on NCI-H460; > 39 µM (inactive) in the assay on OVCAR-4; 78.9 µM (inactive) with KM12; 25.4 µM (inactive) in the assay on EKVX; > 83.8 µM (inactive) in the assay on IGROV-1. Also, the GI50 in the assay with M19-MEL was 31.8 µM (inactive); with SF-539, 28 µM (inactive); in the assay on K562 it was 0.122 µM (active); in the assay on COLO 205 it was 21.5 µM (inactive); with SF-295, 1.77 µM (inactive); with DLD-1, 26.8 µM (inactive). Further, the GI50 in the assay on RPMI-8226 is 11.7 µM (inactive); in the assay on HCT-15 it was 18.7 µM; in the assay on NCI-H226 it was 68.2 µM (inactive).

Turning to `CC(=O)O[C@]12CCCCC1C1(O)C(O)CCCC[C@H]12` (some centres not stated), the GI50 in the assay with A549, in the assay on UACC-62, in the assay with NCI-H460, with OVCAR-4, in the assay with KM12 and in the assay on EKVX was > 100 µM (inactive) in each case. In addition, the GI50 in the assay on RXF 393, in the assay with M19-MEL, in the assay with K562, with COLO 205, in the assay with SF-295 and in the assay on RPMI-8226 was > 100 µM (inactive) throughout. For the same molecule, the results for the GI50 in the assay with HCT-15 and in the assay with NCI-H226 were greater than 100 µM and > 100 µM (inactive), respectively.

As for `CCOC(=O)/C(=C/c1ccc(N(C)C)cc1)N(CC)CC`, the GI50 in the assay with A549 was 48.1 µM (inactive); in the assay with UACC-62, 74.5 µM (inactive); with OVCAR-4, 73.1 µM (inactive); in the assay with KM12 it was 79.8 µM (inactive); with EKVX, 35.2 µM (inactive); in the assay on IGROV-1 it was > 100 µM (inactive). Also, the GI50 with M19-MEL was 24.6 µM (inactive); in the assay on SF-539 it was > 100 µM (inactive); in the assay with K562, 22.5 µM (inactive); with COLO 205 it was > 100 µM (inactive); with SF-295, > 100 µM (inactive); in the assay on RPMI-8226, 26.1 µM (inactive). The GI50 with HCT-15 is 40.3 µM; with NCI-H226 it was 21.1 µM (inactive).

For the molecule `C=CCCC(C)N(C(=O)OC(C)(C)C)S(=O)(=O)c1ccc(C)cc1` (configuration not stated), the GI50 in the assay on A549 is > 100 µM (inactive); in the assay on UACC-62, 77.4 µM (inactive); in the assay on NCI-H460 it was > 100 µM (inactive); in the assay on OVCAR-4, > 100 µM (inactive); in the assay on KM12, > 100 µM (inactive); with IGROV-1 it was > 100 µM (inactive). Besides, the GI50 in the assay on SF-539, in the assay with K562, in the assay on COLO 205, in the assay with SF-295, in the assay with DLD-1 and with RPMI-8226 was > 100 µM (inactive) each time. For the same molecule, the results for the GI50 in the assay on HCT-15 and in the assay with NCI-H226 were greater than 100 µM and > 100 µM (inactive), respectively.

On to `COC(=O)/C=C1/OC(c2ccccc2)=CC1=O`, for which the GI50 with A549 was 29 µM (inactive); in the assay with UACC-62, 18.6 µM (inactive); in the assay with PC-3 it was 20.4 µM (inactive); in the assay with NCI/ADR-RES, 23.2 µM (inactive); in the assay on NCI-H460, 19.7 µM (inactive); in the assay with OVCAR-4 it was 16.4 µM (inactive). In addition, the GI50 in the assay on Hs-578T was 22.9 µM (inactive); in the assay with KM12 it was 16.7 µM (inactive); in the assay on EKVX, 17.9 µM (inactive); in the assay on IGROV-1 it was 16 µM (inactive); in the assay on RXF 393, 14.5 µM (inactive); in the assay with SF-539, 20.3 µM (inactive). In addition, the GI50 in the assay with K562 is 12 µM (inactive); in the assay on COLO 205 it was 15.9 µM (inactive); with SF-295 it was 14.2 µM (inactive); with RPMI-8226, 6.25 µM (inactive); in the assay on HCT-15 it was 15.6 µM; in the assay with NCI-H226 it was 24.6 µM (inactive).

In the case of `COc1ccc(-c2oc3cc(-c4cc5oc(-c6ccc(OC)cc6)c(-c6ccc(OC)cc6)c5cc4OC)c(OC)cc3c2-c2ccc(OC)cc2)cc1`, the GI50 with A549, in the assay on UACC-62, in the assay on PC-3, with NCI/ADR-RES, with NCI-H460 and in the assay with OVCAR-4 was > 100 µM (inactive) in each case. Further, the GI50 with Hs-578T, in the assay on KM12, with EKVX, with IGROV-1, with RXF 393 and with SF-539 was > 100 µM (inactive) each time. For the same molecule, the GI50 in the assay with K562 was > 100 µM (inactive); with COLO 205, > 100 µM (inactive); in the assay with SF-295, > 100 µM (inactive); in the assay on RPMI-8226, > 100 µM (inactive); with HCT-15, greater than 100 µM; with NCI-H226 it was > 100 µM (inactive).

Take `CC1(C)N=C(N)N=C(N)N1c1ccc(CCCCc2ccc(S(=O)(=O)F)cc2Cl)c(Cl)c1`: the GI50 in the assay on A549 was 0.706 µM (active); with UACC-62, 0.258 µM (active); in the assay with PC-3, 1.11 µM (active); in the assay on NCI/ADR-RES it was 143 µM (inactive); in the assay on NCI-H460, 0.266 µM (active); in the assay on OVCAR-4 it was 37.2 µM (inactive). Further, the GI50 in the assay with Hs-578T was 74 µM (inactive); in the assay on KM12 it was 2.52 µM (inactive); in the assay with EKVX, 36.2 µM (inactive); in the assay on IGROV-1 it was 0.39 µM (active); with RXF 393, 14.2 µM (inactive); in the assay on SF-539, 1.67 µM (inactive). Further, the GI50 was 0.425 µM (active) in the assay on K562; 5.85 µM (inactive) in the assay with COLO 205; 1.84 µM (inactive) in the assay on SF-295; 1.57 µM (inactive) with DLD-1; 3.05 µM (inactive) with RPMI-8226; 2.72 µM in the assay with HCT-15. Also, the GI50 in the assay with NCI-H226 was 18.5 µM (inactive).

`CC12Nc3c(Cl)cc(Cl)cc3N1C(=O)c1ccccc12` (configuration not stated): the GI50 was > 100 µM (inactive) in the assay with A549; > 100 µM (inactive) in the assay with UACC-62; > 100 µM (inactive) in the assay with PC-3; 91.8 µM (inactive) with NCI/ADR-RES; 95.5 µM (inactive) in the assay with NCI-H460; 90.2 µM (inactive) in the assay on OVCAR-4. Besides, the GI50 in the assay on Hs-578T is 48 µM (inactive); in the assay with KM12 it was > 100 µM (inactive); with EKVX, 57 µM (inactive); in the assay with IGROV-1, 92.3 µM (inactive); with RXF 393, 78.3 µM (inactive); in the assay on SF-539 it was > 100 µM (inactive). For the same molecule, the GI50 with K562 was > 10 µM (inactive); with COLO 205, > 100 µM (inactive); in the assay with SF-295, > 100 µM (inactive); in the assay with RPMI-8226 it was > 100 µM (inactive); in the assay with HCT-15, greater than 100 µM; in the assay with NCI-H226 it was 68.7 µM (inactive).

Turning to `O=c1c2ccccc2n2n1Cc1ccccc1C2`, the GI50 with A549, in the assay with UACC-62, with PC-3, in the assay on NCI/ADR-RES, in the assay with NCI-H460 and in the assay with OVCAR-4 was > 100 µM (inactive) in each case. Also, the GI50 in the assay on Hs-578T is 57.9 µM (inactive); in the assay on KM12, > 100 µM (inactive); in the assay on EKVX, 35.6 µM (inactive); with IGROV-1 it was > 100 µM (inactive); with RXF 393 it was > 100 µM (inactive); in the assay with SF-539, > 100 µM (inactive). The GI50 with K562 was > 100 µM (inactive); in the assay on COLO 205, > 100 µM (inactive); in the assay with SF-295 it was > 100 µM (inactive); in the assay with RPMI-8226, > 100 µM (inactive); in the assay with HCT-15, greater than 100 µM; in the assay with NCI-H226 it was > 100 µM (inactive).

For `ON(CCc1ccccn1)Cc1ccccc1`, the GI50 in the assay on A549, with UACC-62, in the assay on PC-3, in the assay with NCI/ADR-RES, with NCI-H460 and in the assay with OVCAR-4 was > 100 µM (inactive) in each case. Besides, the GI50 in the assay on Hs-578T, in the assay with KM12, in the assay with EKVX, in the assay on IGROV-1, with RXF 393 and in the assay with SF-539 was > 100 µM (inactive) in each case. In addition, the GI50 in the assay with K562 is 31.7 µM (inactive); in the assay on COLO 205, > 100 µM (inactive); with SF-295, > 100 µM (inactive); in the assay with RPMI-8226 it was > 100 µM (inactive); in the assay on HCT-15, greater than 100 µM; in the assay with NCI-H226 it was > 100 µM (inactive).

Take `O=C1C(=O)c2c(oc(=O)c3ccccc23)-c2ccccc21`: the GI50 with A549 was > 25 µM (inactive); in the assay with UACC-62 it was > 25 µM (inactive); in the assay with PC-3, > 25 µM (inactive); with NCI/ADR-RES, 22.9 µM (inactive); in the assay with NCI-H460, > 25 µM (inactive); with OVCAR-4, 6.5 µM (inactive). Besides, the GI50 with Hs-578T, in the assay on KM12, in the assay with EKVX, with IGROV-1, with RXF 393 and in the assay with SF-539 was > 25 µM (inactive) throughout. Moreover, the GI50 in the assay on K562 was > 25 µM (inactive); with COLO 205, > 25 µM (inactive); with SF-295, > 25 µM (inactive); in the assay on RPMI-8226 it was 19.3 µM (inactive); in the assay on HCT-15 it was 17.6 µM; with NCI-H226 it was > 25 µM (inactive).

In the case of `Oc1cc(Cl)cc2cc(Br)cnc12`, the GI50 with A549 is 3.27 µM (inactive); in the assay with UACC-62 it was 6.27 µM (inactive); in the assay with PC-3 it was 2.57 µM (inactive); in the assay on NCI/ADR-RES, 2.06 µM (inactive); in the assay with NCI-H460, 1.99 µM (inactive); with OVCAR-4, 3.49 µM (inactive). Moreover, the GI50 is 4.62 µM (inactive) with Hs-578T; 4.69 µM (inactive) in the assay on KM12; 4.14 µM (inactive) in the assay with EKVX; 2.92 µM (inactive) in the assay with IGROV-1; 2.29 µM (inactive) with RXF 393; 2.18 µM (inactive) in the assay on SF-539. In addition, the GI50 with K562 was 1.69 µM (inactive); with COLO 205, 41.6 µM (inactive); with SF-295 it was 2.96 µM (inactive); with RPMI-8226, 1.42 µM (inactive); in the assay with HCT-15, 0.771 µM; in the assay with NCI-H226 it was 22.6 µM (inactive).

These data come from ChEMBL document CHEMBL1201862, “PubChem BioAssay data set” (2004).
